Assay results as given in ChEMBL document CHEMBL2424607, “Synthesis, characterization, and computational studies on phthalic anhydride-based benzylidene-hydrazide derivatives as novel, potential anti-inflammatory agents” (2013).

Tests used:
Format in all cases: functional
Rattus norvegicus [1] = test: Antiinflammatory activity against carrageenan-induced paw edema rat model assessed as inhibition of hind paw swelling administered 1 hr before carrageenan challenge measured after 2 hrs by plethysmometer relative to control
Mus musculus [2] = organism: Mus musculus; test: Analgesic activity in Swiss albino mouse assessed as duration of thermal-stimulus induced tail flick latency after 60 mins by tail immersion method (reference value: 3.01 +/- 0.04 seconds)
Mus musculus [3] = organism: Mus musculus; test: Analgesic activity in Swiss albino mouse assessed as duration of thermal-stimulus induced tail flick latency after 90 mins by tail immersion method (reference value: 3.87 +/- 0.10 seconds)
Rattus norvegicus [4] = test: Antiinflammatory activity against carrageenan-induced paw edema rat model assessed as inhibition of hind paw swelling administered 1 hr before carrageenan challenge measured after 1 hr by plethysmometer relative to control
Rattus norvegicus [5] = test: Antiinflammatory activity against carrageenan-induced paw edema rat model assessed as inhibition of hind paw swelling administered 1 hr before carrageenan challenge measured after 3 hrs by plethysmometer relative to control
Mus musculus [6] = organism: Mus musculus; test: Analgesic activity in Swiss albino mouse assessed as duration of thermal-stimulus induced tail flick latency after 30 mins by tail immersion method (reference value: 2.13 +/- 0.03 seconds)
Mus musculus [7] = test: Analgesic activity in Swiss albino mouse assessed as duration of thermal-stimulus induced tail flick latency at 10 mg/kg after 30 mins by tail immersion method (reference value: 2.13 +/- 0.03 seconds)
Rattus norvegicus [8] = test: Antiinflammatory activity against carrageenan-induced paw edema rat model assessed as inhibition of hind paw swelling at 10 mg/kg administered 1 hr before carrageenan challenge measured after 1 hr by plethysmometer relative to control
Mus musculus [9] = test: Analgesic activity in Swiss albino mouse assessed as duration of thermal-stimulus induced tail flick latency at 10 mg/kg after 90 mins by tail immersion method (reference value: 3.87 +/- 0.10 seconds)
Mus musculus [10] = test: Analgesic activity in Swiss albino mouse assessed as duration of thermal-stimulus induced tail flick latency at 10 mg/kg after 60 mins by tail immersion method (reference value: 3.01 +/- 0.04 seconds)
Rattus norvegicus [11] = test: Antiinflammatory activity against carrageenan-induced paw edema rat model assessed as inhibition of hind paw swelling at 10 mg/kg administered 1 hr before carrageenan challenge measured after 3 hrs by plethysmometer relative to control
Rattus norvegicus [12] = test: Antiinflammatory activity against carrageenan-induced paw edema rat model assessed as inhibition of hind paw swelling at 10 mg/kg administered 1 hr before carrageenan challenge measured after 2 hrs by plethysmometer relative to control

| SMILES | inhibition (INH) (Rattus norvegicus [1]) [%] | Time (Mus musculus [2]) [s] | Time (Mus musculus [3]) [s] | inhibition (INH) (Rattus norvegicus [4]) [%] | inhibition (INH) (Rattus norvegicus [5]) [%] | Time (Mus musculus [6]) [s] | Time (Mus musculus [7]) [s] | inhibition in vivo at 10 mg/kg (Rattus norvegicus [8]) [%] | Time (Mus musculus [9]) [s] | Time (Mus musculus [10]) [s] | inhibition in vivo at 10 mg/kg (Rattus norvegicus [11]) [%] | inhibition in vivo at 10 mg/kg (Rattus norvegicus [12]) [%] |
| --- | --- | --- | --- | --- | --- | --- | --- | --- | --- | --- | --- | --- |
| O=C(CN1C(=O)c2ccccc2C1=O)N/N=C/c1ccc(O)cc1 | 43.4 | 3.83 | 4.12 | 23.2 | 50.6 | 3.42 | – | – | – | – | – | – |
| COc1cc(/C=N/NC(=O)CN2C(=O)c3ccccc3C2=O)ccc1O | 53.6 | 6.22 | 9.09 | 32.1 | 64 | 4.53 | – | – | – | – | – | – |
| Cc1ccc(/C=N/NC(=O)CN2C(=O)c3ccccc3C2=O)cc1 | 24.6 | 3.86 | 4.5 | 17.8 | 25.3 | 3.32 | – | – | – | – | – | – |
| O=C(CN1C(=O)c2ccccc2C1=O)N/N=C/c1ccccc1[N+](=O)[O-] | 49.2 | 6.29 | 6.88 | 30.3 | 57.3 | 5.35 | – | – | – | – | – | – |
| COc1cc(/C=N/NC(=O)CN2C(=O)c3ccccc3C2=O)cc(OC)c1OC | 40.5 | 4.04 | 4.21 | 26.7 | 49.4 | 3.83 | – | – | – | – | – | – |
| O=C(CN1C(=O)c2ccccc2C1=O)N/N=C/c1ccccc1 | 15.9 | 3.22 | 3.89 | 14.2 | 17.3 | 2.83 | – | – | – | – | – | – |
| O=C([O-])Cc1ccccc1Nc1c(Cl)cccc1Cl.[Na+] [DICLOFENAC SODIUM] | – | – | – | – | – | – | 3.06 | 39.8 | 10.93 | 5.06 | 68 | 60.8 |
| O=C(CN1C(=O)c2ccccc2C1=O)N/N=C/c1ccc([N+](=O)[O-])cc1 | 43.4 | 6.45 | 6.83 | 19.6 | 54.6 | 5.39 | – | – | – | – | – | – |
| COc1cccc(/C=N/NC(=O)CN2C(=O)c3ccccc3C2=O)c1 | 49.2 | 3.94 | 4.92 | 28.5 | 61.4 | 3.21 | – | – | – | – | – | – |
| O=C(CN1C(=O)c2ccccc2C1=O)N/N=C/c1ccc(Cl)cc1 | 47.8 | 7.13 | 8.91 | 26.7 | 58.6 | 5.61 | – | – | – | – | – | – |
